Results published in US11299460B2, “MDM2 inhibitor, preparation method therefor, pharmaceutical composition thereof and use thereof” (SHANGHAI LONGWOOD BIOPHARMACEUTICALS CO., LTD., priority 2018, dated 2022).
pIC50: −log10 of the molar value.

Key:
GST-hMDM2 (aa1-188) = molecular target: T1, GST-hMDM2 (aa1-188) (Homo sapiens, UniProt Q00987); assay: Homogeneous time resolved fluorometry (HTRF assay), hMDM2/p53 interaction; format: binding; settings: HTRF analysis; GST-hMDM2 (aa1-188) / biotinylated-p53 (aa1-83)
T1 construct: The amino acid residues 1-188 of human MDM2 were expressed as GST-hMDM2 fusion protein; made in house; host or cells: E. coli
Method: Residues 1-83 of human p53 were expressed as avitag <TM>-trxa-6×his fusion protein (biotinlabelled p53) in E. coli. Each protein was separated from cell homogenate by affinity chromatography.
Specifically, 10 μL GST-hMDM2 was incubated with 10 uL diluted compound in 10% DMSO for 20 minutes at room temperature. 20 μL biotinlabelled-p53 was added to the mixture of GST-hMDM2 and then incubated at room temperature for 60 min. A 10 μL detection buffer consisting of SA-XLent, anti-GST cavernous compound antibody and KF was added to the reaction solution consisting of GST-hMDM2, biotinlabelled-p53 and the compound and was placed at room temperature to achieve equilibrium and maintained for more than 4 h. The final concentration of DMSO in the reaction solution was 2%. Time resolved fluorescence were measured on a microplate multi label reader. The inhibition percentage was calculated relative to nutlin-3.

[1] = system: p21 transcripts in SJSA-1 cells; assay: p21 assay (QRT-PCR of p21 transcripts in SJSA-1 cells); format: cell-based, human; settings: Homo sapiens, SJSA-1, 7 h, cell assay (SJSA-1 cell); p21 induction, 7 hours incubation
Source text: Inhibition of the interaction between hMDM2 and p53 results in the activation of the p53 pathway via the stabilization and accumulation of p53. P53 activates the transcription of many genes, one of which is p21<WAFT/CIP1>. To evaluate the potency of hMDM2 inhibitors, quantitative reverse transcription polymerase chain reaction (QRT PCR) was used to measure the level of p21 transcripts of compound related cells relative to that of control cells treated with dimethyl sulfoxide (DMSO).
In the first day, SJSA-1 cells were inoculated into 100 μL growth medium (RPMI1640; 10 mM HEPES; 1 mM sodium pyruvate; 1× penicillin streptomycin glutamine (PSQ) and 10% FBS, all reagents were obtained from Invitrogen) at a density of 3×10^4 cells in 96-well cell culture plate. The cells were cultured overnight at 37° C. and 5% CO2 atmosphere.
In the second day, hMDM2 inhibitor was gradient diluted in DMSO(Sigma-Aldrich; St. Louis, Mo.). 5 μl of each compound dilution were added into 245 μl filtered assay medium (RPMI1640, 10% FBS, 10 mM HEPES, 1 mM sodium pyruvate and 1×PSQ). Or the assay was conducted with the presence of 10% human serum or 10% mouse serum, or without serum. Growth medium was removed from inoculated SJSA-1 cell culture plate and replaced by 100 μL assay medium for each well. Then 100 μL culture medium containing diluted inhibitor was added into each well to a final volume 200 μL. The final concentration of the compound was in the range of 0.049 μm-50 μm by dose titration with DMSO as control. The cells were incubated at 37° C. and 5% CO2 for 7 hours with the presence of inhibitor. When incubation was completed, growth medium was removed from cells and the plate was stored at −80° C.
In the third day, giagen BioRobot Universal workstation was used to purify total RNA from SJSA-1 cells treated with inhibitor and DMSO respectively. The purification procedure herein was according to RNeasy96BioRobot8000 test kit provided by Qiagen, Valencia, Calif.
To measure the level of existing p21 transcripts, QRT-PCR was introduced. The levels of p21, housekeeping genes and glyceraldehyde 3-phosphate dehydrogenase (GAPDH) were determined by the total RNA from each inhibitor- or DMSO-treated well by duplicated test. The QRT-PCR reaction was performed on the Applied Biosystems prism 7900ht instrument using the relative quantitative (ΔΔ Ct) method according to the following cycle conditions: 48° C. for 30 minutes, then 95° C. for 10 minutes, and then was 40 cycles consisting of 95° C. for 15 seconds and 60° C. for 1 minute. The data were analyzed by using Applied Biosystems SDS2.2 software, with GAPDH as inner control and DMSO treated samples as calibrators. SDS2.2 software calculated the relative quantification (RQ) or increased fold of p21 level relative to DMSO control for each treated sample. The maximum (100%) p21 induction fold was defined by the maximum value of the fitting curve of the reference compound. The p21 induction fold of each inhibitor dose tested was converted to a value representing the percentage of the maximum value. XLFit software (ID business solutions, Alameda, Calif.) was used to make dose-response curve to calculate the IC50 transit value of each inhibitor tested.

T1 sequence (Q00987 1-188): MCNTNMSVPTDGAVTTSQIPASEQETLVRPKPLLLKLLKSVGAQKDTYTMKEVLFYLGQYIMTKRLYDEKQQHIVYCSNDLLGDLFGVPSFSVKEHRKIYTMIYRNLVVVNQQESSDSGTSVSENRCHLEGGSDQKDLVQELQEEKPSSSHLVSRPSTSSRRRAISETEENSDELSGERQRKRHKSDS

Row | pIC50 (GST-hMDM2 (aa1-188)) | pIC50 [1] | Compound
1 | > 8.00 | > 6.00 | CC(C)[C@@H](CS(=O)(=NC(=O)N(C)C)C(C)C)N1C(=O)[C@@](C)(CC(=O)O)C[C@H](c2cccc(Cl)c2)[C@H]1c1ccc(Cl)cc1 (stereo partly drawn) [Compound 045]
2 | > 8.00 | > 6.00 | CN=S(=O)(C[C@H](C(C)C)N1C(=O)[C@@](C)(CC(=O)O)C[C@H](c2cccc(Cl)c2)[C@H]1c1ccc(Cl)cc1)C(C)C (stereo partly drawn) [Compound 003, 2-((3R,5R,6S)-5-(3-chlorophenyl)-6-(4-chlorophenyl)-3-methyl-1-((2S)-3-methyl-1-(N-methyl-2-propylsulfonamido)butyl-2-)-2-oxo-piperidine-3-yl)acetic acid]
3 | < 7.00 | 5.00 to 6.00 | Cc1c(Br)cccc1NC(=O)C[C@@]1(C)C[C@H](c2cccc(Cl)c2)[C@@H](c2ccc(Cl)cc2)N([C@H](CS(=N)(=O)C(C)C)C(C)C)C1=O (stereo partly drawn) [Compound 013]
4 | 7.00 to 8.00 | 5.00 to 6.00 | CC(C)[C@@H](CS(=O)(=O)C(C)C)N1C(=O)[C@@](C)(CC(=O)NS(=N)(=O)C2CC2)C[C@H](c2cccc(Cl)c2)[C@H]1c1ccc(Cl)cc1 (stereo partly drawn) [Compound 025]
5 | > 8.00 | > 6.00 | CC(C)[C@@H](CS(=O)(=NC(N)=O)C(C)C)N1C(=O)[C@@](C)(CC(=O)O)C[C@H](c2cccc(Cl)c2)[C@H]1c1ccc(Cl)cc1 (stereo partly drawn) [Compound 034]
6 | 7.00 to 8.00 | 5.00 to 6.00 | Cc1ccc(S(=O)(=O)NC(=O)C[C@@]2(C)C[C@H](c3cccc(Cl)c3)[C@@H](c3ccc(Cl)cc3)N([C@H](CS(=N)(=O)C(C)C)C(C)C)C2=O)cc1 (stereo partly drawn) [Compound 021]
7 | < 7.00 | 5.00 to 6.00 | CC(C)[C@@H](CS(=N)(=O)C(C)C)N1C(=O)[C@@](C)(CC(=O)Nc2ccc(F)c(Br)c2)C[C@H](c2cccc(Cl)c2)[C@H]1c1ccc(Cl)cc1 (stereo partly drawn) [Compound 017]
8 | > 8.00 | 5.00 to 6.00 | CC(C)[C@@H](CS(=N)(=O)C(C)C)N1C(=O)[C@@](C)(CC(=O)Nc2ccc(C(=O)O)cc2)C[C@H](c2cccc(Cl)c2)[C@H]1c1ccc(Cl)cc1 (stereo partly drawn) [Compound 007]
9 | 7.00 to 8.00 | 5.00 to 6.00 | CC(C)[C@@H](CS(=N)(=O)C(C)C)N1C(=O)[C@@](C)(CC(=O)NS(=O)(=O)c2ccc(C#N)cc2)C[C@H](c2cccc(Cl)c2)[C@H]1c1ccc(Cl)cc1 (stereo partly drawn) [Compound 024]
10 | > 8.00 | 5.00 to 6.00 | COc1cc(C(=O)O)ccc1NC(=O)C[C@@]1(C)C[C@H](c2cccc(Cl)c2)[C@@H](c2ccc(Cl)cc2)N([C@H](CS(=N)(=O)C(C)C)C(C)C)C1=O (stereo partly drawn) [Compound 009]
11 | > 8.00 | > 6.00 | CC(C)[C@@H](CS(=O)(=NC(=O)N1CCOCC1)C(C)C)N1C(=O)[C@@](C)(CC(=O)O)C[C@H](c2cccc(Cl)c2)[C@H]1c1ccc(Cl)cc1 (stereo partly drawn) [Compound 046]
12 | > 8.00 | > 6.00 | COc1cc(NC(=O)C[C@@]2(C)C[C@H](c3cccc(Cl)c3)[C@@H](c3ccc(Cl)cc3)N([C@H](C[S@](=O)(=NC(C)=O)C(C)C)C(C)C)C2=O)ccc1C(=O)O [Compound 042]
13 | > 8.00 | > 6.00 | CCOC(=O)N=S(=O)(C[C@H](C(C)C)N1C(=O)[C@@](C)(CC(=O)Nc2ccc(C(=O)O)c(OC)c2)C[C@H](c2cccc(Cl)c2)[C@H]1c1ccc(Cl)cc1)C(C)C (stereo partly drawn) [Compound 052]
14 | > 8.00 | > 6.00 | COc1cc(NC(=O)C[C@@]2(C)C[C@H](c3cccc(Cl)c3)[C@@H](c3ccc(Cl)cc3)N([C@H](CS(=O)(=NC(=O)N3CCCC3)C(C)C)C(C)C)C2=O)ccc1C(=O)O (stereo partly drawn) [Compound 051]
15 | 7.00 to 8.00 | > 6.00 | CC(C)[C@@H](CS(=O)(=O)C(C)C)N1C(=O)[C@@](C)(CC(=O)NS(=N)(=O)C2(C)CC2)C[C@H](c2cccc(Cl)c2)[C@H]1c1ccc(Cl)cc1 (stereo partly drawn) [Compound 028A]

The next lines start with the compound.

Row | Compound | pIC50 (GST-hMDM2 (aa1-188)) | pIC50 [1]
16 | C=CC(=O)N=[S@@](=O)(C[C@H](C(C)C)N1C(=O)[C@@](C)(CC(=O)O)C[C@H](c2cccc(Cl)c2)[C@H]1c1ccc(Cl)cc1)C(C)C [Compound 041] | 7.00 to 8.00 | > 6.00
17 | CC(C)[C@@H](CS(=N)(=O)C(C)C)N1C(=O)[C@@](C)(CC(=O)NS(C)(=O)=O)C[C@H](c2cccc(Cl)c2)[C@H]1c1ccc(Cl)cc1 (stereo partly drawn) [Compound 018] | 7.00 to 8.00 | 5.00 to 6.00
18 | CC(C)[C@@H](CS(=O)(=NC(=O)N1CCCC1)C(C)C)N1C(=O)[C@@](C)(CC(=O)O)C[C@H](c2cccc(Cl)c2)[C@H]1c1ccc(Cl)cc1 (stereo partly drawn) [Compound 047] | > 8.00 | > 6.00
19 | COc1cc(NC(=O)C[C@@]2(C)C[C@H](c3cccc(Cl)c3)[C@@H](c3ccc(Cl)cc3)N([C@H](CS(=O)(=NC(=O)N3CCOCC3)C(C)C)C(C)C)C2=O)ccc1C(=O)O (stereo partly drawn) [Compound 050] | > 8.00 | > 6.00
20 | CC(C)[C@@H](CS(=N)(=O)C(C)C)N1C(=O)[C@@](C)(CC(=O)NS(=O)(=O)c2ccc(F)cc2)C[C@H](c2cccc(Cl)c2)[C@H]1c1ccc(Cl)cc1 (stereo partly drawn) [Compound 022] | 7.00 to 8.00 | 5.00 to 6.00
21 | COc1ccc(S(=O)(=O)NC(=O)C[C@@]2(C)C[C@H](c3cccc(Cl)c3)[C@@H](c3ccc(Cl)cc3)N([C@H](CS(=N)(=O)C(C)C)C(C)C)C2=O)cc1 (stereo partly drawn) [Compound 023] | 7.00 to 8.00 | > 6.00
22 | Cc1ccc(S(=N)(=O)NC(=O)C[C@@]2(C)C[C@H](c3cccc(Cl)c3)[C@@H](c3ccc(Cl)cc3)N([C@H](CS(=O)(=O)C(C)C)C(C)C)C2=O)cc1 (stereo partly drawn) [Compound 029] | < 7.00 | 5.00 to 6.00
23 | CC(C)[C@@H](CS(=N)(=O)C(C)C)N1C(=O)[C@@](C)(CC(=O)NS(=O)(=O)C2(C)CC2)C[C@H](c2cccc(Cl)c2)[C@H]1c1ccc(Cl)cc1 (stereo partly drawn) [Compound 019] | 7.00 to 8.00 | 5.00 to 6.00
24 | COc1cc(C(=O)O)ccc1NC(=O)C[C@@]1(C)C[C@H](c2cccc(Cl)c2)[C@@H](c2ccc(Cl)cc2)N([C@H](C[S@](=O)(=NC(C)=O)C(C)C)C(C)C)C1=O [Compound 053] | > 8.00 | > 6.00
25 | COc1cc(NC(=O)C[C@@]2(C)C[C@H](c3cccc(Cl)c3)[C@@H](c3ccc(Cl)cc3)N([C@H](CS(=N)(=O)C(C)C)C(C)C)C2=O)ccc1C(=O)O (stereo partly drawn) [Compound 008] | > 8.00 | > 6.00
26 | COc1cc(C(=O)O)ccc1NC(=O)C[C@@]1(C)C[C@H](c2cccc(Cl)c2)[C@@H](c2ccc(Cl)cc2)N([C@H](C[S@](=O)(=NC(N)=O)C(C)C)C(C)C)C1=O [Compound 054] | > 8.00 | > 6.00
27 | CC(C)[C@@H](CS(=N)(=O)C(C)C)N1C(=O)[C@@](C)(CC(=O)N[C@H]2CC[C@H](O)CC2)C[C@H](c2cccc(Cl)c2)[C@H]1c1ccc(Cl)cc1 (stereo partly drawn) [Compound 011] | 7.00 to 8.00 | 5.00 to 6.00
